ChEMBL document CHEMBL1201862, “PubChem BioAssay data set” (2004)
The source made the active and inactive calls.

Assays:
[1] = target: T1, Insulin-degrading enzyme (Homo sapiens, UniProt P14735); test: cellular IDE activation of Abeta substrate cleavage – fluorescence polarization, HEK cells, dose response (AID 588439); assay type: functional, cell-based
T1 sequence (P14735 whole entry): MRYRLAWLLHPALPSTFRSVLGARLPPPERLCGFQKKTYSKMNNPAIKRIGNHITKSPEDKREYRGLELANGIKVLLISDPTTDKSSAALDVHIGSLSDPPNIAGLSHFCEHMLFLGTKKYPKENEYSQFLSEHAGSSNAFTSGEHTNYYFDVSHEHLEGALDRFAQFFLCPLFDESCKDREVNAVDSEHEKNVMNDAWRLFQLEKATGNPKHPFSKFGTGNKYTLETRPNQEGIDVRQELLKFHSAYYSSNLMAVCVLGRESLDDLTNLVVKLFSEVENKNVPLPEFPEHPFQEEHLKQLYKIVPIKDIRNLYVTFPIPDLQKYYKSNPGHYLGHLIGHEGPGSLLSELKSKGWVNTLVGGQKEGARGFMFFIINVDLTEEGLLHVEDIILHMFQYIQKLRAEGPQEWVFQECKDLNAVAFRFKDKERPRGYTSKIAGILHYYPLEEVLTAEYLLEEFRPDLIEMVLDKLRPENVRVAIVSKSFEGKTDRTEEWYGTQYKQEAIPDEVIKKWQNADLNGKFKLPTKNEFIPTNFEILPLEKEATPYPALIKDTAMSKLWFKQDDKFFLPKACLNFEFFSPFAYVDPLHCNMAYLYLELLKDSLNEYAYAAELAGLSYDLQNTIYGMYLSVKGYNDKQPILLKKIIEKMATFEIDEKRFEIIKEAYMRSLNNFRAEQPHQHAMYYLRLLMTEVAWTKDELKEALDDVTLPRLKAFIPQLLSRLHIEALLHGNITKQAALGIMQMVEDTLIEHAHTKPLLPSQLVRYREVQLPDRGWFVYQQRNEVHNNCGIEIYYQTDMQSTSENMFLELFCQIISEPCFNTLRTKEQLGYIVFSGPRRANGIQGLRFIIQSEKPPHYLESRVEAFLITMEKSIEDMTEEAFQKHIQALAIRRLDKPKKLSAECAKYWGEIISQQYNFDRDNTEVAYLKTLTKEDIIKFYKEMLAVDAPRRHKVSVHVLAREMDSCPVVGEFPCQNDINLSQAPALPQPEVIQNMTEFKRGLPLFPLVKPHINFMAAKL

[2] = system: HEK293; test: membrane integrity loss in HEK cells – cell-based, fluorescence, cytotoxicity control for IDE activator project, dose response (AID 588440); assay type: functional; conditions: Homo sapiens;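 note: cytotoxicity by LDH release measuring loss of membrane integrity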
[3] = system: HEK293; test: optical interference in Abeta FP readout, dose response, artefact control for IDE activator project, biochemical, fluorescence polarization (AID 588442); assay type: functional, cell-based; conditions: Homo sapiens
[4] = target: T2, DNA repair protein RAD52 homolog (Homo sapiens, UniProt P43351); assay type: functional, biochemical
T2 sequence (P43351 whole entry): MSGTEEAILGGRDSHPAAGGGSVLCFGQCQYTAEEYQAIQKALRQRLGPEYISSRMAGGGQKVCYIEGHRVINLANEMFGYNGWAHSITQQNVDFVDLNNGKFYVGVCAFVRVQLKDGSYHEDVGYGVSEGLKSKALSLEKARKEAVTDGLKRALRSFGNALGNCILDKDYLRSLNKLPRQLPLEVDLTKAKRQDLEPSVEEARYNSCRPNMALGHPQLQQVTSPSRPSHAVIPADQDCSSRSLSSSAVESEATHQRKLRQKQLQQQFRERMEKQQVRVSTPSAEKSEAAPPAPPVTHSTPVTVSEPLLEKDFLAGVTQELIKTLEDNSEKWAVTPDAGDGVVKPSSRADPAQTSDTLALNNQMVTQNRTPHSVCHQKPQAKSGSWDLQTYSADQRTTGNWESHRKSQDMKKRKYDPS

[5] = target: T1, Insulin-degrading enzyme; test: recombinant IDE activation, cell-free – biochemical, fluorescence polarization, counter-screen for IDE activator project, dose response (AID 588681)
[6] = system: INS1; test: suppression of NO production in INS-1E cells – cell-based, Griess absorbance, dry powder, set 2, dose response (AID 488868); assay type: functional; conditions: Rattus norvegicus
[7] = FACS-based assay to assess parasite growth inhibition 48 hr Measured in Cell-Based System Using Flow Cytometry - 2126-03_Inhibitor_Dose_DryPowder_Activity. [Related pubchem assays (depositor defined):AID488774]; assay type: functional; conditions: Homo sapiens
[8] = system: Erythrocyte; test: FACS-based assay to assess parasite growth inhibition 96 hr Measured in Cell-Based System Using Flow Cytometry - 2126-05_Inhibitor_Dose_DryPowder_Activity. [Related pubchem assays (depositor defined):AID488774]; assay type: functional; conditions: Homo sapiens
[9] = potency of ADAM10 substrate cleavage blockers – biochemical, QFRET, dose response (AID 743254);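 note: ADAM10 enzyme with the DM2 quenched FRET peptide as substrate; EDANS fluorescence gain as the protease cuts the substrate; inhibitor potency against ADAM10 proteolytic activity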
[10] = A cell-based HTS for delayed death inhibitors of the malarial parasite plastid Measured in Microorganism System Using Plate Reader - 2126-02_Inhibitor_Dose_DryPowder_Activity.; assay type: functional, organism-based
[11] = target: Disintegrin and metalloproteinase domain-containing protein 17 (Homo sapiens, UniProt P78536); test: inhibition of ADAM17 substrate cleavage – biochemical, quenched FRET substrate, counter-screen for ADAM10 exosite inhibitor project, dose response (AID 743253)
[12] = A cell-based HTS for delayed death inhibitors of the malarial parasite plastid Measured in Microorganism System Using Plate Reader - 2126-01_Inhibitor_Dose_DryPowder_Activity.; assay type: functional, organism-based
[13] = target: T3, Sentrin-specific protease 6 (Homo sapiens, UniProt Q9GZR1); test: SAR Analysis of small molecule inhibitors of Sentrin-specific protease 6 (SENP6) using a Luminescent assay. [Related pubchem assays (depositor defined):AID2582, AID2599]; assay type: functional
T3 sequence (Q9GZR1 whole entry): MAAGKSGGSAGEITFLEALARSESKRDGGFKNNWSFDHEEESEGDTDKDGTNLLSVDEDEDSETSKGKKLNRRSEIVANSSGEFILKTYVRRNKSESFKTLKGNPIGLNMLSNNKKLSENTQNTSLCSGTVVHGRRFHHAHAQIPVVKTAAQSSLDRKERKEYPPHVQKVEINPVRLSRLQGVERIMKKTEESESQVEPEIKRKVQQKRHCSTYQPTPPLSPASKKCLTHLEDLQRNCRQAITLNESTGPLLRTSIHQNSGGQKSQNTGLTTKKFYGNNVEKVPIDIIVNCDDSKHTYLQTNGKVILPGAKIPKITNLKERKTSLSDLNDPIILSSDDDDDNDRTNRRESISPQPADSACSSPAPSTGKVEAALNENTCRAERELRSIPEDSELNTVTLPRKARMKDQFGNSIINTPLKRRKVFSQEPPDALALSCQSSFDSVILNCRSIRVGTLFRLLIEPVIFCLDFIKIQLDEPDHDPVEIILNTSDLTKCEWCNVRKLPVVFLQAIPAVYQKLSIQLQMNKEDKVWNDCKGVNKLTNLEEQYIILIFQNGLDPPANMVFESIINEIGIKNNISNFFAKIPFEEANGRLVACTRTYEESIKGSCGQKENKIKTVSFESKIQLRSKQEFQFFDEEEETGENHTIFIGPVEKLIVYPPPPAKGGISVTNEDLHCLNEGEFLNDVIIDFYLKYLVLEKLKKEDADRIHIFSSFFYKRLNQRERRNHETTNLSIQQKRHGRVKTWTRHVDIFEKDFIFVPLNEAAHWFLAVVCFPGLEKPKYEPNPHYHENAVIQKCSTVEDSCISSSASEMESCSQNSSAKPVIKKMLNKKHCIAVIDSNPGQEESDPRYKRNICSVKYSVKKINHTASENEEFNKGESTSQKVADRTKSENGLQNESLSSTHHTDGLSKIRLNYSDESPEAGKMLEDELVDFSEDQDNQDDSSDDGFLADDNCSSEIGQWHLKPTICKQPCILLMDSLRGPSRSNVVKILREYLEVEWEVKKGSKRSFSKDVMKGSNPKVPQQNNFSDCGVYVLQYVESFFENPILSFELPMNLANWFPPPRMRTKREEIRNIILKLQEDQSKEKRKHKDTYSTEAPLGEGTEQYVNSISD

[14] = target: T4, Sentrin-specific protease 8 (Homo sapiens, UniProt Q96LD8); test: inhibition of human SENP8 cleavage activity – biochemical, luminescence, SAR follow-up (AID 504501); assay type: functional
T4 sequence (Q96LD8 whole entry): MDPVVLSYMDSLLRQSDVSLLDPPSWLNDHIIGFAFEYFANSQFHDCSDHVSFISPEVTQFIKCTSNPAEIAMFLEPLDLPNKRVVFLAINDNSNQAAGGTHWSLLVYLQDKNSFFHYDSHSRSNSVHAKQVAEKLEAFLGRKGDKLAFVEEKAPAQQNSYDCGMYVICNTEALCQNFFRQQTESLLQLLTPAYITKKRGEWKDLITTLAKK

[15] = target: T4, Sentrin-specific protease 8; test: inhibition of sentrin protease 8 – biochemical, luminescence, set 2, SAR follow-up (AID 588601); assay type: functional
[16] = target: T5, Sentrin-specific protease 7 (Homo sapiens, UniProt Q9BQF6); test: inhibition of human SENP7 cleavage activity – biochemical, luminescence, SAR follow-up (AID 504497); assay type: functional
T5 sequence (Q9BQF6 whole entry): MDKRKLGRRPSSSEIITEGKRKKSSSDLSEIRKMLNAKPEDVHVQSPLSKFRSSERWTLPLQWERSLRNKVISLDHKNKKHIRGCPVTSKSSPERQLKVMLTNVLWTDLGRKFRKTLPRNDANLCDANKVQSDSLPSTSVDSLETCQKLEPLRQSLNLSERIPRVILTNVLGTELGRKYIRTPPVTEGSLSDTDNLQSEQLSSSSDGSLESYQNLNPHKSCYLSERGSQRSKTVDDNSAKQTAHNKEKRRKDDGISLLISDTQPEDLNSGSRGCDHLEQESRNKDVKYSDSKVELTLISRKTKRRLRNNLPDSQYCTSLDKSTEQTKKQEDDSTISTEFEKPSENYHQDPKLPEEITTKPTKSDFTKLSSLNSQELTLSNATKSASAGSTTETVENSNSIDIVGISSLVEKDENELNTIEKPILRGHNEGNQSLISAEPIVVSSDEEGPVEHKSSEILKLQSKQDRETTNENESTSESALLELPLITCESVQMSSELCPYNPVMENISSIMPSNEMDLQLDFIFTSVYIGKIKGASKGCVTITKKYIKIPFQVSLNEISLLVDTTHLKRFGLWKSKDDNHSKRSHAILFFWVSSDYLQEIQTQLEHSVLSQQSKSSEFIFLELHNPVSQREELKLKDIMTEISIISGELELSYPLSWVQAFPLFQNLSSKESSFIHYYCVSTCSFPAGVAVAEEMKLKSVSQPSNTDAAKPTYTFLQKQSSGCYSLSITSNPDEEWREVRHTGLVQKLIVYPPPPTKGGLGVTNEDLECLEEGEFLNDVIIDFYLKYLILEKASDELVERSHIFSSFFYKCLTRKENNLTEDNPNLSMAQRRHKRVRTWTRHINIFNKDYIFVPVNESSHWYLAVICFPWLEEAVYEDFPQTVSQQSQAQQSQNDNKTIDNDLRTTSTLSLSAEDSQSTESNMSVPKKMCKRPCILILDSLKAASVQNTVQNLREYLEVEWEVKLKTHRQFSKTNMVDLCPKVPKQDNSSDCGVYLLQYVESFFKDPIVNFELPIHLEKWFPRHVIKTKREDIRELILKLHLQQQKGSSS

[17] = target: T6, Caspase-3 (Homo sapiens, UniProt P42574); test: SAR Analysis of small molecule inhibitors of Sentrin-specific proteases (SENPs) using a Caspase-3 Selectivity assay. [Related pubchem assays (depositor defined):AID2540, AID2599, AID434973, AID489001]; assay type: functional
T6 sequence (P42574 whole entry): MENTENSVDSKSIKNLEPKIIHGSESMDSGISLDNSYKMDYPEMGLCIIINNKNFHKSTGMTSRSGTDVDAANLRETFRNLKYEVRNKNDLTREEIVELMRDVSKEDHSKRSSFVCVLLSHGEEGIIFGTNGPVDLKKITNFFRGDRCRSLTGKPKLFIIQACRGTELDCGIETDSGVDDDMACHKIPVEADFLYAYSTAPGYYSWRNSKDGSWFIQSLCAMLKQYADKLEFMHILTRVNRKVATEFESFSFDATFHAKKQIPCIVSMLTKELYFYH

[18] = target: T6, Caspase-3; test: inhibition of recombinant caspase-3 activity – biochemical, luminescence, set 2, selectivity assay for SENP protease inhibitor project, SAR follow-up (AID 588599); assay type: functional
[19] = target: T3, Sentrin-specific protease 6; test: inhibition of human SENP6 catalytic domain – biochemical, luminescence, set 2, SAR follow-up (AID 588598); assay type: functional
[20] = target: T5, Sentrin-specific protease 7; test: inhibition of human SENP7 cleavage activity – biochemical, luminescence, set 2, SAR follow-up (AID 588600); assay type: functional

Sequence of Disintegrin and metalloproteinase domain-containing protein 17 (P78536 whole entry, the tested form may be a part): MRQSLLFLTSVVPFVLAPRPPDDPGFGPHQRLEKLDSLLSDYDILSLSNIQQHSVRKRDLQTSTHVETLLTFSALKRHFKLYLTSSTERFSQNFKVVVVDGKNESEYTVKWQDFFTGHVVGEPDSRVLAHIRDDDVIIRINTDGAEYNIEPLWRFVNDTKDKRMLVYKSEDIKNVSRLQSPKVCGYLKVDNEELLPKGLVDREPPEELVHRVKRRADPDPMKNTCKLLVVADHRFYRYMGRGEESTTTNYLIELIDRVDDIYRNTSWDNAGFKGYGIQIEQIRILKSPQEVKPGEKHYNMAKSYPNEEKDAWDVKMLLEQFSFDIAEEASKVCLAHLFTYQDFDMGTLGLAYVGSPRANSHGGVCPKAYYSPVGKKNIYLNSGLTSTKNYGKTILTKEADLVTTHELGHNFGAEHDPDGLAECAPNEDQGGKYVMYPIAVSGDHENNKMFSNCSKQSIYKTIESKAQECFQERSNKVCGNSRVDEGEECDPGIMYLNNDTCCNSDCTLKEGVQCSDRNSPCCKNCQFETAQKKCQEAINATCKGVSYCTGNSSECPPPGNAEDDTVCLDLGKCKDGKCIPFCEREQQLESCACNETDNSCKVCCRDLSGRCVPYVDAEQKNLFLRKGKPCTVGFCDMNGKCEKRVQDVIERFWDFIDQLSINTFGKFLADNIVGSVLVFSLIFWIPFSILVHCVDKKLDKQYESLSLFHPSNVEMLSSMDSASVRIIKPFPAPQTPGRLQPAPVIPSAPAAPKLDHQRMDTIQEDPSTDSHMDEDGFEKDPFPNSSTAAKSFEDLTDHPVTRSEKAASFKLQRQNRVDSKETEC

For `O=c1c2c(-c3ccccc3)csc2nc2c3ccccc3c(NCCN3CCOCC3)nn12`, the EC50 [1] was > 54700 nM (inactive), the IC50 [2] was 10600 nM (inactive) and the EC50 [3] was > 55900 nM (inactive). The AC50 [4] was 1580 nM (active) and the EC50 [5] was 25200 nM (inactive).
For `COc1ccc(S(=O)(=O)N(C)C[C@@H]2Oc3ccc(NC(=O)Nc4cccc5ccccc45)cc3C(=O)N([C@@H](C)CO)C[C@H]2C)cc1`, the AC50 [6] was 43800 nM (active).
For `C[C@@H]1CN([C@@H](C)COC(=O)C(C)(C)C)C(=O)c2cc(NC(=O)Nc3ccccc3)ccc2O[C@@H](C)CCCCO[C@H]1CN(C)S(=O)(=O)c1ccc(F)cc1`, the AC50 [7] was 4.25 nM (active), the AC50 [8] was 5 nM (active) and the IC50 [9] was > 69500 nM (inactive). For the same molecule, the AC50 [10] was 8.77 nM (active), the IC50 [11] was > 69500 nM (inactive) and the AC50 [12] was 5.39 nM (active).
In the case of `O=C(Nc1nc2ccccc2s1)c1sccc1Cl`, the IC50 [13] is reported as 750 nM (active), the IC50 [14] is reported as 710 nM (active) and the IC50 [15] is reported as 1220 nM (active). For the same molecule, the IC50 [16] was 890 nM (active), the IC50 [17] was 540 nM (active) and the IC50 [18] was 954 nM (active). The IC50 [19] was 1190 nM (active) and the IC50 [20] was 1210 nM (active).
